The target in data set [1] is T1, Proto-oncogene tyrosine-protein kinase Src (Homo sapiens, UniProt P12931).
Description: Inhibition of human recombinant Src after 70 mins by FRET assay
The nature of data set [2]: Plasma concentration in nude mouse at 50 mg/kg, po after 24 hrs. It is filed as ADME, organism-based. More on the design: dose 50 mg/kg, route oral.
Data set [3] in a line: Half life in rat liver microsomes. It is filed as ADME, Microsome. A general note: Liver microsomes are a subcellular fraction often used to study metabolism.
For data set [4], the system named is HT-29. As to the kind of experiment: In vivo antitumor activity against human HT-29 cells at 150 mg/kg, po qd for 14 days measured on day 21. It is filed as functional.
The target of data set [5] is Tyrosine-protein kinase ABL1 (Homo sapiens, UniProt P00519). As to the kind of experiment: Inhibition of Abl.
Sequence of Tyrosine-protein kinase ABL1 (P00519 whole entry): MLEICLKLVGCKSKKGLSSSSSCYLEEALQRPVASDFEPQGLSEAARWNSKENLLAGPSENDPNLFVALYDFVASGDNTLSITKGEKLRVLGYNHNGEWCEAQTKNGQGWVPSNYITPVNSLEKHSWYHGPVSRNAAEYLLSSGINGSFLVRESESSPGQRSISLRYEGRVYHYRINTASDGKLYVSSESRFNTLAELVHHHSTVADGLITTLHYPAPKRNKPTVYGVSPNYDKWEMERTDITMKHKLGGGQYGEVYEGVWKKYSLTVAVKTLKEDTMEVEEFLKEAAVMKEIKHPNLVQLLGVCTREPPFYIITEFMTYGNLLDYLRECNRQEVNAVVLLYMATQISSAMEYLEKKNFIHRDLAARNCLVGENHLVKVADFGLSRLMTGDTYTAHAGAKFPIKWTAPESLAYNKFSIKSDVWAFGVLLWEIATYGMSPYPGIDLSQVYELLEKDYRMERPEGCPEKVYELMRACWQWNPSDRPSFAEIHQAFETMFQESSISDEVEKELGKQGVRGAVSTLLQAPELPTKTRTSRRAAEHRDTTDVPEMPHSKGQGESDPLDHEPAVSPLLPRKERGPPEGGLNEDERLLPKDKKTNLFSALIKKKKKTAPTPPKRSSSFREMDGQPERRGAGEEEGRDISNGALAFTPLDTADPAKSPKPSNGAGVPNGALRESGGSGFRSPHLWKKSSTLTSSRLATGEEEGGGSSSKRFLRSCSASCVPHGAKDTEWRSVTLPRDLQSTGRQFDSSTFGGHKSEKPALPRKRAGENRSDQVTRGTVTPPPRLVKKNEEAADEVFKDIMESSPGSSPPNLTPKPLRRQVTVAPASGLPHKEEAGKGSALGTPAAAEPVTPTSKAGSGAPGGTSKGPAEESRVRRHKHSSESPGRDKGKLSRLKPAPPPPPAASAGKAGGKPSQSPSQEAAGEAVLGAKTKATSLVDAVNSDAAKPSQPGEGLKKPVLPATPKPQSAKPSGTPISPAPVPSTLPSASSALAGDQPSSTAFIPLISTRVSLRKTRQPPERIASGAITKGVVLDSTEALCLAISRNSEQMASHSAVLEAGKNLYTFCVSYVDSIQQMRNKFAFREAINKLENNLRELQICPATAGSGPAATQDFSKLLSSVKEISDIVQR
The nature of data set [6]: Inhibition of IKK.
The target in data set [7] is RAC-alpha serine/threonine-protein kinase (Homo sapiens, UniProt P31749). As to the kind of experiment: Inhibition of AKT.
Sequence of RAC-alpha serine/threonine-protein kinase (P31749 whole entry): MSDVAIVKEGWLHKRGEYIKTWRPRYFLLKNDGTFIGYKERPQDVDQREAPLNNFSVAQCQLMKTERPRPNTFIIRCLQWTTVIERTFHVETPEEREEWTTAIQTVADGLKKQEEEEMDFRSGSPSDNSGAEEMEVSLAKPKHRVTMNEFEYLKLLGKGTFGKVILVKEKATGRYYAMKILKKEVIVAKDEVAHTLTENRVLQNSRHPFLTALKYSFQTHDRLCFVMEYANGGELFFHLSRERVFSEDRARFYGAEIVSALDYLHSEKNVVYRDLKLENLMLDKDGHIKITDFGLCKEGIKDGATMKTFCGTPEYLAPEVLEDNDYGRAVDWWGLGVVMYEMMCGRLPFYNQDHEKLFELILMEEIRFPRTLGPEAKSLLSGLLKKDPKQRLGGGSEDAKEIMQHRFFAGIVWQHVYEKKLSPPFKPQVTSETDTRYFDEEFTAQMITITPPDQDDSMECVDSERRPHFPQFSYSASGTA
Data set [8] concerns the target Mitogen-activated protein kinase kinase kinase 8 (Homo sapiens, UniProt P41279). Kind of data set: Inhibition of TPL2.
Data set [9] in a line: Inhibition of IGFR.
The target of data set [10] is Serine/threonine-protein kinase mTOR (Homo sapiens, UniProt P42345). Kind of data set: Inhibition of mTOR.
Data set [11] is described as follows: Half life in human microsomes. The class given is ADME, Microsome.
A short description of data set [12]: Half life in nude mouse microsomes. It is filed as ADME, Microsome.
Data set [13] concerns the target T1, Proto-oncogene tyrosine-protein kinase Src. Kind of data set: Inhibition of human recombinant Src at 10 uM after 70 mins by FRET assay.

A value given as a limit tells only on which side of the number the result lay.

From ChEMBL document CHEMBL1157919, “Optimization of 7-alkene-3-quinolinecarbonitriles as Src kinase inhibitors” (Bioorg Med Chem Lett, 2010) come the findings set out here.

T1 sequence (P12931 2-536 limits assumed): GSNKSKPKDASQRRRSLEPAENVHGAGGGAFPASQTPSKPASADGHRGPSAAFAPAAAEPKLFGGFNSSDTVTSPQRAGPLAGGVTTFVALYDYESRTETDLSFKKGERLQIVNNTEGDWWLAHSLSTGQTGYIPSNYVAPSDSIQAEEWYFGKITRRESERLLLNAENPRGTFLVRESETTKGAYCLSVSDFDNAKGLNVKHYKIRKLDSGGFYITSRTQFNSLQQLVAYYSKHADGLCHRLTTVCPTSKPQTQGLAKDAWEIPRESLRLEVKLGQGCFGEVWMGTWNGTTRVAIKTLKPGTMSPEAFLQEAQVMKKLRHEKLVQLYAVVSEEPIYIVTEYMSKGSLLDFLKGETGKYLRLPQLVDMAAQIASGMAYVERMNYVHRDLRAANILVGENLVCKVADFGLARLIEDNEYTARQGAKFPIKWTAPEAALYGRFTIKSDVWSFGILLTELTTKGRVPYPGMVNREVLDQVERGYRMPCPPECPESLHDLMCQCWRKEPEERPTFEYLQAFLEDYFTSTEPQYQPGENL
Sequence of Mitogen-activated protein kinase kinase kinase 8 (P41279 whole entry): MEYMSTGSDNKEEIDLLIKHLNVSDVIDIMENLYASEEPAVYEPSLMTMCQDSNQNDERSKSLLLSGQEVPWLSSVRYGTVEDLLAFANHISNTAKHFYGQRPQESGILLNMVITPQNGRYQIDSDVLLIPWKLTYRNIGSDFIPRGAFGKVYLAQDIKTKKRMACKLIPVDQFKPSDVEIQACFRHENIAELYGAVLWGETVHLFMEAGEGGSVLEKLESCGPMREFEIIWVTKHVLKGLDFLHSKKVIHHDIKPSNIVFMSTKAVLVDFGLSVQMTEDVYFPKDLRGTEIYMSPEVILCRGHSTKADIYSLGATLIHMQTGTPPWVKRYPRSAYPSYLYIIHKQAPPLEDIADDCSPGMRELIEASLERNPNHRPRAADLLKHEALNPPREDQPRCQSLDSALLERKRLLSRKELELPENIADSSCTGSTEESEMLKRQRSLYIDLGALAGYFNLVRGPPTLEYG

Usually IC50 stands for the concentration that gives 50% inhibition. Lower therefore signals higher potency. Regarding `COc1cc(Nc2c(C#N)cnc3cc(/C=C/CN4CCOCC4)c(OC)cc23)c(Cl)cc1Cl`, in [1], inhibition was half-maximal at 8.7 nM (IC50).
`COc1cc(Nc2c(C#N)cnc3cc(/C=C/CCCCCCCCCN4CCOCC4)c(OC)cc23)c(Cl)cc1Cl` registered a 50% inhibitory concentration (IC50) in data set [1] of 130 nM.
As for `COc1cc(Nc2c(C#N)cnc3cc(/C=C/CCCN4CCOCC4)c(OC)cc23)c(Cl)cc1Cl`, the IC50 in [1] turned out to be 5.4 nM. Against the preceding compound, the IC50 is about 24-fold lower.
`COc1cc(Nc2c(C#N)cnc3ccc(/C=C/CCN4CCOCC4)cc23)c(Cl)cc1Cl` gave an IC50 in [1] of 340 nM. This IC50 is about 63-fold higher than that of the compound before.
In data set [1], `COc1cc(Nc2c(C#N)cnc3cc(/C=C/CCN4CCOCC4)c(OC)cc23)c(Cl)cc1Cl` registered an IC50 of 4.8 nM.
In turn, `COc1cc(Nc2c(C#N)cnc3cc(/C=C/c4ccc(CN(C)C)cn4)c(OC)cc23)c(Cl)cc1Cl` displayed a concentration at 24 h in [2] of 36 ng/mL. In data set [1], half-maximal inhibition (IC50) was put at 2.2 nM.
The term half-life denotes how long it takes for the measured level to halve. The low end stands for fast loss, the high end for slow loss. The compound `COc1cc(Nc2c(C#N)cnc3cc(/C=C/CCN(C)C)c(OC)cc23)c(Cl)cc1Cl` displayed a half-life in [3] of more than 30 min. In [1], this compound registered an IC50 of 2.5 nM.
In [3], `COc1cc(Nc2c(C#N)cnc3cc(/C=C/CCN4CCCCC4)c(OC)cc23)c(Cl)cc1Cl` registered a half-life of more than 30 min. In data set [1], the IC50 was 2.6 nM.
On to `CCN1CCN(CC/C=C/c2cc3ncc(C#N)c(Nc4cc(OC)c(Cl)cc4Cl)c3cc2OC)CC1`, for which the half-life in [3] was more than 30 min. Further, half-maximal inhibition in [1] (IC50) required 1.7 nM.
In data set [1], `COc1cc(Nc2c(C#N)cnc3cc(/C=C/CCCCN4CCOCC4)c(OC)cc23)c(Cl)cc1Cl` yielded an IC50 of 18 nM.
Take `COc1cc(Nc2c(C#N)cnc3cc(/C=C/c4ccc(CN(C)C)cc4)c(OC)cc23)c(Cl)cc1Cl`: the concentration at 24 h in data set [2] came to 10 ng/mL. The midpoint of inhibition in [1], the IC50, lay at 2.4 nM.
`N#Cc1cnc2cc(/C=C/CCN3CCOCC3)ccc2c1Nc1ccc(Cl)cc1Cl` yielded an IC50 in [1] of 41 nM.
In [1], `COc1cc(Nc2c(C#N)cnc3cc(/C=C/c4cc(CN(C)C)ccn4)c(OC)cc23)c(Cl)cc1Cl` registered an IC50 of 6.8 nM.
On the same count and under the same terms, as for `COc1cc(Nc2c(C#N)cnc3cc(/C=C/c4cccc(CN(C)C)c4)c(OC)cc23)c(Cl)cc1Cl`, the figure is 3 nM.
The compound `COc1cc(Nc2c(C#N)cnc3cc(/C=C/CCN4CCN(C)CC4)c(OC)cc23)c(Cl)cc1Cl` registered a T/C in data set [4] of 0.36. Besides, the IC50 in [5] was 0.4 nM; in data set [6] it was more than 10000 nM; in data set [7] it was more than 10000 nM; in [8], more than 10000 nM; in [9], more than 10000 nM; in data set [10] it was more than 10000 nM. The concentration for half-maximal inhibition (IC50) in data set [1] was 2.1 nM. Besides, the half-life was 10 min in data set [3], 11 min in data set [11] and 33 min in [12].
With `COc1cc(Nc2c(C#N)cnc3cc(/C=C/CCN4CCOCC4)ccc23)c(Cl)cc1Cl`, half-maximal inhibition in data set [1] (IC50) was put at 15 nM.
In the case of `COc1cc(Nc2c(C#N)cnc3cc(/C=C/c4cccc(CN(C)C)n4)c(OC)cc23)c(Cl)cc1Cl`, in [2], the concentration at 24 h amounted to 28 ng/mL. In addition, the IC50 in data set [1] was 2.2 nM.
In turn, `COc1cc(Nc2c(C#N)cnc3cc(OCCCN4CCN(C)CC4)c(OC)cc23)c(Cl)cc1Cl` [BOSUTINIB] returned a concentration at 24 h in [2] of 40 ng/mL. The same compound registered a T/C in [4] of 0.43.
`N#Cc1cnc2ccc(/C=C/CCN3CCOCC3)cc2c1Nc1ccc(Cl)cc1Cl` registered an IC50 in data set [1] of 1200 nM.
As a reminder, the inhibition is the share of the control response that was lost under treatment. With `COc1cc(Nc2c(C#N)cnc3c(/C=C/CCN4CCOCC4)cccc23)c(Cl)cc1Cl`, in data set [13], the inhibition was determined as 52%.
